The text below walks through data of patent US7498406B2, “Substantially cell membrane impermeable compound and use thereof” (priority 1999, dated 2009).

For data set [1], the system named is chick CAM. The experiment in a line: Chick chorioallantoic membrane (CAM) angiogenesis. The settings on record: for inhibition of CAM angiogenesis (avascular zones): 5, 10 or 50 μg per pellet, 48 hr; for adverse effect on the wellbeing of the chick embryo: up to 50 μg per pellet. It counts as in vivo. The procedure: FIG. 22. Inhibition of CAM angiogenesis by GSAO. Fertilised 3 day-old white Leghorn eggs were cracked, the embryos placed in petri dishes and incubated for 3 days. Methylcellulose discs containing 5, 10 or 50 μg of either GSAA or GSAO were then applied to the CAM of individual embryos and incubated for 48 hr. The CAMs were scored for no obvious effect or inhibition of angiogenesis as defined by avascular zones. Photographs of CAM's after incubation with discs containing 10 μg of either GSAA (top) or GSAO (bottom) is shown in the left hand panel. The dotted circle indicates the placement of the disc.
The chick CAM assay has been used for the detection and analysis of angiogenesis inhibition (Nguyen et al., 1994). Fertilised 3 day-old white Leghorn eggs (Spafas, Norwich, Conn.) were cracked, the embryos with intact yolks placed in 20×100 mm petri dishes and incubated for 3 days at 37° C. and 3% CO2 (Folkman, 1995). Methylcellulose (Fisher Scientific, Fair Lawn, N.J.) discs containing 5, 10 or 50 μg of either GSAA or GSAO were then applied to the CAM of individual embryos and incubated for 48 hr at 37° C. and 3% CO2. The discs were made by desiccation of GSAA or GSAO in 10 μl of 0.45% methycellulose on teflon rods. The CAMs were observed using a stereomicroscope and scored for no obvious effect or inhibition of CAM angiogenesis as defined by avascular zones. On some occasions CAM blood vessels were injected with India ink and photographed.

Data set [2] has as its system BCE. In words: Viability of cultured cells, 72 hr. Format: cell-based, bovine. The procedure:
FIG. 18. Inhibition of proliferation and reduction in viability of BCE cells by GSAO. 15,000 (part A and B) or 50,000 (part C and D) BCE cells per well were seeded into gelatinised 24-well culture plates and allowed to attach for 24 hr (part A, B and D) or 72 hr (part C). The media was then replaced with DMEM containing 5% BCS and 0 to 1 mM GSAO or GSAA and either 1 ng per mL FGF-2 (part A) or 10 ng per mL VEGF (part B). In part D, the media was replaced with DMEM containing 5% BCS and 1 ng per mL FGF-2 and either 10 μM GSAO or GSAA. In part C, the media was replaced with DMEM containing 5% BCS and 0 to 1 mM GSAO or GSAA. Cells were cultured for 72 hr in parts A, B and C or for discrete times up to 48 hr in part D and then dispersed and counted. The dotted line in parts A, B and C indicate the cell number in control wells containing DMEM and 5% BCS which represented no to limited proliferation. The dotted line in part D represents no change in cell number over the 48 hr. The data points and errors represent the mean and range of duplicate wells.
BCE (Folkman et al. 1979), BAE, BxPC-3 (ATCC, Bethesda, Md.), HT1080 (Jiang et al., 1999), 3T3 (ATCC, Bethesda, Md.) and BVSM (Hogg et al., 1997) cells were harvested and cultured as indicated. Cells (0.5 mL of 30,000 or 100,000 cells per mL) were seeded into gelatinized 24-well culture plates (Corning Costar, Corning, N.Y.) in Dulbecco's Modified Eagle's Medium (DMEM, JHR Bioscience, Lenexa, Kans.) containing 10% fetal calf serum (FCS, Intergen Comp., Purchase, N.Y.) and 1% Glutamine Pen-Strep (GPS, Irvine Scientific, Santa Ana, Va.) and allowed to attach for 24 hr in 10% CO2 at 37° C. […] Cells were cultured for 0 to 72 hr in 10% CO2 at 37° C. then dispersed in trypsin/EDTA (GibcoBRL, Granc Island, N.Y.), resuspended in Coulter balanced electrolyte solution and counted with a Z1 Coulter counter (Coulter Corp., Miami, Fla.) in all experiments there were two control wells containing DMEM with 1% GPS and either 5% BCS for BCE cells, 2% BCS for BAE and BVSM cells, or 2% FCS for BxPC-3, HT1080 and 3T3 cells. […]

Data set [3] deals with BxPC-3 tumours. In words: Tumour growth, continuous intraperitoneal administration by micro-osmotic pumps. Format: in vivo, SCID mice. The conditions noted are these: 10 mg per kg per day. Here is the method:
FIG. 27. Inhibition of human pancreatic carcinoma tumour growth by continuous intraperitoneal administration of GSAO. BxPC-3 tumours were established in the proximal midline of female 7 to 9 week old SCID mice. Mice bearing ˜0.1 g tumours were implanted with 14 day alzet model 1002 micro-osmotic pumps (ALZA Corporation, Palo Alto, Calif.) in the peritoneal cavity. The pumps contained 45 mg per mL GSAA or GSAO and delivered 10 mg per kg per day. The pumps were replaced after 14 days. Pump duration is indicated by the shaded bar. Tumour volume and animal weight was measured every 3 days.
SCID mice bearing subcutaneous human BxPC-3-pancreatic carcinoma tumours were implanted with 14 day micro-osmotic pumps in the peritoneal cavity. The pumps delivered 10 mg per kg per day GSAA or GSAO and were replaced after 14 days with fresh pumps. The rate of growth of the BxPC-3 tumours was inhibited in the mice receiving GSAO (FIG. 27). […] When the second pump was exhausted one of the halted tumours began to grow at about the same rate as the GSAA-treated tumour while the other tumour had resolved completely.

“Also recorded” adds a separate entry of the source.

Take `NC(CCC(=O)NC(CSCC(=O)Nc1ccc([As]=O)cc1)C(=O)NCC(=O)O)C(=O)O` (stereo not shown) [GSAO, 4-(N-(S-glutathionylacetyl)amino)-phenylarsenoxide]: in data set [1], the “inhibition of CAM angiogenesis (avascular zones)” value is on record as “inhibited angiogenesis in the CAM in a concentration-dependent manner” and the “adverse effect on the wellbeing of the chick embryo” value is “Neither GSAA nor GSAO had any apparent adverse effect”. In data set [2] (10 μM, 1 ng per mL FGF-2, up to 48 hr), the “time dependence of the decrease in viability” value is recorded as “no decrease in viability after 8 hours”. Besides, the IC50 in data set [2] (5% BCS + 10 ng/mL VEGF, >90% confluent, 72 hr) is ~3000 nM. Further, in data set [3], the “rate of BxPC-3 tumour growth” value is “halted completely in two other mice” and the “slowing of tumour growth in one mouse” value was determined as 50%.

In the case of `N[C@@H](CCC(=O)N[C@@H](CSCC(=O)Nc1ccc([As](=O)(O)O)cc1)C(=O)NCC(=O)O)C(=O)O` [GSAA, 4-(N-(S-glutathionylacetyl)amino)phenylarsonic acid, reference compound], in data set [1], the “inhibition of CAM angiogenesis (avascular zones)” value is on record as “did not inhibit CAM angiogenesis; also recorded: no effects on CAM angiogenesis” and the “adverse effect on the wellbeing of the chick embryo” value is recorded as “Neither GSAA nor GSAO had any apparent adverse effect”. Further, in data set [2] (0 to 1 mM), the “effect on viability of BCE cells” value was “no significant effect on viability”. Further, in data set [3], the “rate of BxPC-3 tumour growth” value was “no significant effect”.

One may read the IC50 as the point on the concentration scale where inhibition reaches its midpoint.
